# Results taken from ChEMBL document CHEMBL1151757, “Synthesis, radiosynthesis, and biological evaluation of fluorine-18-labeled 2beta-carbo(fluoroalkoxy)-3beta-(3'-((Z)-2-haloethenyl)phenyl)nortropanes: candidate radioligands for in vivo imaging of the serotonin transporter with positron emission tomography” (J Med Chem, 2008).
# How the values were obtained:
# [1] = Drug uptake in awake rhesus monkey midbrain after 2.3 mins postinjection; assay type: ADME, organism-based, Macaca mulatta; settings: in vivo, 138 s
# [2] = Drug uptake in awake rhesus monkey occipital lobe after 25 mins postinjection; assay type: ADME, organism-based, Macaca mulatta; settings: in vivo
# [3] = Drug uptake in awake rhesus monkey brain caudate after 85 mins postinjection; assay type: ADME, organism-based, Macaca mulatta, Caudate nucleus; settings: in vivo
# [4] = Ratio of drug uptake in medulla to cerebellum in awake rhesus monkey after 4.5 mins postinjection; assay type: ADME, organism-based, Macaca mulatta; settings: in vivo, 0.075 h
# [5] = Ratio of drug uptake in pons to cerebellum in awake rhesus monkey after 2.3 mins postinjection; assay type: ADME, organism-based, Macaca mulatta; settings: in vivo, 138 s
# [6] = Ratio of drug uptake in pons to cerebellum in awake rhesus monkey after 7.5 mins postinjection; assay type: ADME, organism-based, Macaca mulatta; settings: in vivo, 0.125 h
# [7] = Drug uptake in awake rhesus monkey occipital lobe after 105 mins postinjection; assay type: ADME, organism-based, Macaca mulatta; settings: in vivo, 1.75 h
# [8] = Drug uptake in awake rhesus monkey medulla after 2.3 mins postinjection; assay type: ADME, organism-based, Macaca mulatta, Medulla of organ; settings: in vivo, 138 s
# [9] = Drug uptake in awake rhesus monkey occipital lobe after 2.8 mins postinjection; assay type: ADME, organism-based, Macaca mulatta; settings: in vivo, 168 s
# [10] = Ratio of drug uptake in putamen to cerebellum in awake rhesus monkey after 25 mins postinjection; assay type: ADME, organism-based, Macaca mulatta; settings: in vivo
# [11] = Drug uptake in awake rhesus monkey occipital lobe after 115 mins postinjection; assay type: ADME, organism-based, Macaca mulatta; settings: in vivo
# [12] = molecular target: Sodium-dependent noradrenaline transporter (Homo sapiens, UniProt P23975); test: Displacement of [3H]nisoxetine from human NET transfected in human HEK293 cells; assay type: cell-based
# Sodium-dependent noradrenaline transporter, sequence (P23975 whole entry): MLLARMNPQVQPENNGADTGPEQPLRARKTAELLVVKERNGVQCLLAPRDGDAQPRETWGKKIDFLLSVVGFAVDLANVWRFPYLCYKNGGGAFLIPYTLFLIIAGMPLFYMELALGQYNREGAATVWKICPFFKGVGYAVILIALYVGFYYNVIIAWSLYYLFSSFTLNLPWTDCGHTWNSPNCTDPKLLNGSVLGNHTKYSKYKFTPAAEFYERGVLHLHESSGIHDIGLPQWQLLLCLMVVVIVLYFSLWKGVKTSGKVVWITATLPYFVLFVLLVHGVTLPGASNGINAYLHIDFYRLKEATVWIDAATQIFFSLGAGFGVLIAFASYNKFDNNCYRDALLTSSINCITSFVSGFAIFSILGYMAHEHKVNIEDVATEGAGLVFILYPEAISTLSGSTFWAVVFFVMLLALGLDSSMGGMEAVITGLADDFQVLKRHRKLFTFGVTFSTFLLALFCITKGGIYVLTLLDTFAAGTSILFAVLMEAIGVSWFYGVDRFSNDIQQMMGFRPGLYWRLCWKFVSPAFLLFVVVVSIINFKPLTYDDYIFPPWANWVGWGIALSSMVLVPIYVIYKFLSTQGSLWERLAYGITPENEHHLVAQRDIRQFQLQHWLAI
# [13] = Drug uptake in awake rhesus monkey brain midbrain after 7.5 mins postinjection; assay type: ADME, organism-based, Macaca mulatta; settings: in vivo, 0.125 h
# [14] = Drug uptake in awake rhesus monkey cerebellum after 1.8 mins postinjection; assay type: ADME, organism-based, Macaca mulatta; settings: in vivo, 0.03 h
# [15] = Ratio of drug uptake in caudate to cerebellum in awake rhesus monkey after 2.8 mins postinjection; assay type: ADME, organism-based, Macaca mulatta; settings: in vivo, 168 s
# [16] = Drug uptake in awake rhesus monkey occipital lobe after 35 mins postinjection; assay type: ADME, organism-based, Macaca mulatta; settings: in vivo
# [17] = Drug uptake in awake rhesus monkey brain pons after 75 mins postinjection; assay type: ADME, organism-based, Macaca mulatta; settings: in vivo, 1.25 h
# [18] = Drug uptake in awake rhesus monkey putamen after 0.3 mins postinjection; assay type: ADME, organism-based, Macaca mulatta; settings: in vivo, 0.005 h
# [19] = Ratio of drug uptake in frontal lobe to cerebellum in awake rhesus monkey after 0.8 mins postinjection; assay type: ADME, organism-based, Macaca mulatta; settings: in vivo, 48 s
# [20] = Drug uptake in awake rhesus monkey occipital lobe after 4.5 mins postinjection; assay type: ADME, organism-based, Macaca mulatta; settings: in vivo, 0.075 h
# [21] = Drug uptake in awake rhesus monkey brain putamen after 65 mins postinjection; assay type: ADME, organism-based, Macaca mulatta; settings: in vivo
# [22] = Ratio of drug uptake in putamen to cerebellum in awake rhesus monkey after 0.3 mins postinjection; assay type: ADME, organism-based, Macaca mulatta; settings: in vivo, 0.005 h
# [23] = Ratio of drug uptake in putamen to cerebellum in awake rhesus monkey after 0.8 mins postinjection; assay type: ADME, organism-based, Macaca mulatta; settings: in vivo, 48 s
# [24] = Drug uptake in awake rhesus monkey brain pons after 7.5 mins postinjection; assay type: ADME, organism-based, Macaca mulatta; settings: in vivo, 0.125 h
# [25] = Ratio of drug uptake in frontal lobe to cerebellum in awake rhesus monkey after 4.5 mins postinjection; assay type: ADME, organism-based, Macaca mulatta; settings: in vivo, 0.075 h
# [26] = Ratio of drug uptake in caudate to cerebellum in awake rhesus monkey after 10.5 mins postinjection; assay type: ADME, organism-based, Macaca mulatta; settings: in vivo, 0.175 h
# [27] = Drug uptake in awake rhesus monkey putamen after 1.8 mins postinjection; assay type: ADME, organism-based, Macaca mulatta; settings: in vivo, 0.03 h
# [28] = Drug uptake in awake rhesus monkey putamen after 2.3 mins postinjection; assay type: ADME, organism-based, Macaca mulatta; settings: in vivo, 138 s
# [29] = Ratio of drug uptake in caudate to cerebellum in awake rhesus monkey after 0.8 mins postinjection; assay type: ADME, organism-based, Macaca mulatta; settings: in vivo, 48 s
# [30] = Ratio of drug uptake in frontal lobe to cerebellum in awake rhesus monkey after 65 mins postinjection; assay type: ADME, organism-based, Macaca mulatta; settings: in vivo
# [31] = Drug uptake in awake rhesus monkey thalamus after 1.8 mins postinjection; assay type: ADME, organism-based, Macaca mulatta; settings: in vivo, 0.03 h
# [32] = Ratio of drug uptake in occipital lobe to cerebellum in awake rhesus monkey after 7.5 mins postinjection; assay type: ADME, organism-based, Macaca mulatta; settings: in vivo, 0.125 h
compound,measurement,setting,value
O=C(OCC[18F])C1C2CCC(CC1c1ccc(/C=C\I)cc1)N2 (configuration not stated),Drug uptake,[1],0.39
same,Drug uptake,[2],2.48
same,Drug uptake,[3],3.27
same,Ratio,[4],1.3
same,Ratio,[5],0.9
same,Ratio,[6],0.9
same,Drug uptake,[7],2.58
same,Drug uptake,[8],0.68
same,Drug uptake,[9],0.53
same,Ratio,[10],1.3
same,Drug uptake,[11],2.57
same,Ki,[12],28 nM
same,Drug uptake,[13],1.35
same,Drug uptake,[14],0.27
same,Ratio,[15],1
same,Drug uptake,[16],2.65
same,Drug uptake,[17],2.75
same,Drug uptake,[18],0.05
same,Ratio,[19],0
same,Drug uptake,[20],0.96
same,Drug uptake,[21],3.31
same,Ratio,[22],5.1
same,Ratio,[23],7.2
same,Drug uptake,[24],1.24
same,Ratio,[25],0.9
same,Ratio,[26],1
same,Drug uptake,[27],0.31
same,Drug uptake,[28],0.46
same,Ratio,[29],0
same,Ratio,[30],1.3
same,Drug uptake,[31],0.32
same,Ratio,[32],1
